The values below come from patent publication US9981962B2, “Pyrazole derivatives as NIK inhibitors” (Janssen Pharmaceutica NV, priority 2014, dated 2018).

One assay has as its system LP-1 cells. Briefly: Biological Assay C: antiproliferative activity on LP-1 cells (CellTiter-Glo). It counts as cell-based, human. To be noted: 72 hr treatment, averaged values. The protocol: (§1) Determination of Antiproliferative Activity on LP-1, L-363 and JJN-3 Cells
(§2) All compounds tested were dissolved in DMSO and further dilutions were made in culture medium. Final DMSO concentration was 0.3% (v/v) in cell proliferation assays. Viability was assessed using CellTiter-Glo cell viability assay kit (Promega). The human LP-1, L-363 and JJN-3 cells (DSMZ) were cultured in RPMI 1640 medium supplemented with 2 mM L-glutamine, and 10% fetal calf serum (PAA). Cells were routinely kept as suspension cells at 37° C. in a humidified 5% CO2 atmosphere. Cells were passaged at a seeding density of 0.2×10^6/ml twice a week. Cells were seeded in black tissue culture treated 96-well plates (Perkin Elmer). Densities used for plating ranged from 2,000 to 6,000 cells per well in a total volume of 75 μl medium. After twenty four hours, drugs and/or solvents were added (25 μl) to a final volume of 100 μl. Following 72 hr of treatment plates were removed from the incubator and allowed to equilibrate to room temperature for approx 10 min. 100 ut CellTiter-Glo reagent was added to each well that was then covered (Perkin Elmer Topseal) and shaken on plate shaker for 10 min. Luminescence was measured on a HTS Topcount (Perkin Elmer). Within an experiment, the results for each treatment were the mean of 2 replicate wells. For initial screening purposes, compounds were tested using a 9 point dilution curve (serial 1:3 dilutions). For each experiment, controls (containing no drug) and a blank incubation (containing cells read at the time of compound addition) were run in parallel. The blank value was subtracted from all control and sample values. For each sample, the mean value for cell growth (in relative light units) was expressed as a percentage of the mean value for cell growth of the control.

A further assay concerns L-363 cells. The experiment in a line: Biological Assay C: antiproliferative activity on L-363 cells (CellTiter-Glo). The assay is classed as cell-based, human. The following applies: 72 hr treatment, averaged values. Here is the method: as §1, §2
(In general: In ATP-based viability assays light output follows the ATP content of the culture.)

Assay [1] deals with Recombinant Human NF-kappaB-Inducing Kinase (NIK/MAP3K14) (Homo sapiens, UniProt Q99558). The experiment in a line: Biological Assay A2: inhibition of auto-phosphorylation of recombinant human NIK/MAP3K14 (AlphaScreen). The assay is classed as biochemical. To be noted: 0.2 nM GST-tagged NIK, 25 microM ATP, 1 h at 25° C., averaged values. The protocol: Inhibition of Auto-Phosphorylation of Recombinant Human NF-kappaB-Inducing Kinase (NIK/MAP3K14) Activity (AlphaScreen®)
NIK/MAP3K14 auto-phosphorylation activity was measured using the AlphaScreen® (αscreen) format (Perkin Elmer). All compounds tested were dissolved in dimethyl sulfoxide (DMSO) and further dilutions were made in assay buffer. Final DMSO concentration was 1% (v/v) in assays. Assay buffer was 50 mM Tris pH 7.5 containing 1 mM EGTA (ethylene glycol tetraacetic acid), 1 mM DTT (dithiothreitol), 0.1 mM Na3VO4, 5 mM MgCl2, 0.01% Tween® 20. Assays were carried out in 384 well Alphaplates (Perkin Elmer). Incubations consisted of compound, 25 microM Adenosine-5′-triphosphate (ATP), and 0.2 nM NIK/MAP3K14. Incubations were initiated by addition of GST-tagged NIK/MAP3K14 enzyme, carried out for 1 h at 25° C. and terminated by addition of stop buffer containing anti-phospho-IKK Ser176/180 antibody. Protein A Acceptor and Glutathione-Donor beads were added before reading using an EnVision® Multilabel Plate Reader (Perkin Elmer). Signal obtained in the wells containing blank samples was subtracted from all other wells and IC50's were determined by fitting a sigmoidal curve to % inhibition of control versus Log10 compound concentration.
Background: Bead proximity is the source of the signal in Alpha formats.

A further assay concerns JJN-3 cells. Briefly: Biological Assay C: antiproliferative activity on JJN-3 cells (CellTiter-Glo). The assay is classed as cell-based, human. To be noted: 72 hr treatment, averaged values. The protocol:
as §1, §2

Chain of Recombinant Human NF-kappaB-Inducing Kinase (NIK/MAP3K14) (Q99558 whole entry): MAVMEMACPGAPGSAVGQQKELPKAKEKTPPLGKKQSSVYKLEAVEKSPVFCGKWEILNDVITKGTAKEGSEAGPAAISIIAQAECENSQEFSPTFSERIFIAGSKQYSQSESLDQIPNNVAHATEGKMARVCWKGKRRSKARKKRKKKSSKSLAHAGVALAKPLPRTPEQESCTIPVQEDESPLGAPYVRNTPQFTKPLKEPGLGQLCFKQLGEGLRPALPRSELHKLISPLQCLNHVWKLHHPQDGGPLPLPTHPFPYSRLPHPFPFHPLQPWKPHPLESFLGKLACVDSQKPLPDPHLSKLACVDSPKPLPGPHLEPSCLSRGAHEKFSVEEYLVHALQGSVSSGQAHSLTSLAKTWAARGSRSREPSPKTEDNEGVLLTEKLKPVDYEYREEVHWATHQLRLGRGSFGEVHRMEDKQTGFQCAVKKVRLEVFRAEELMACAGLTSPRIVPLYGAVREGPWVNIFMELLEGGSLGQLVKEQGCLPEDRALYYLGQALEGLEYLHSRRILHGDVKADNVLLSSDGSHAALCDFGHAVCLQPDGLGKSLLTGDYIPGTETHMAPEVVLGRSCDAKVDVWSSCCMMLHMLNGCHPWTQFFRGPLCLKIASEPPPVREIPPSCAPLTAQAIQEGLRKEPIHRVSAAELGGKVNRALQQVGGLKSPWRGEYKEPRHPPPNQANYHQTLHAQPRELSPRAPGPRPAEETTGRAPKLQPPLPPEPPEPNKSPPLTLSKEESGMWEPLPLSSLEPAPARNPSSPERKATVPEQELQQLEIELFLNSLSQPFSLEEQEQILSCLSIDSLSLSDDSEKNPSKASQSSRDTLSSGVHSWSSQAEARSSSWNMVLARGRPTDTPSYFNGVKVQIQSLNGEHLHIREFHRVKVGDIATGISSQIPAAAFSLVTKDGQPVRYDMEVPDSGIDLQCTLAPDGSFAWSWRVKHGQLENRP

Regarding `[2H]C([2H])([2H])C(O)(C#Cc1cc2c(-c3c[nH]nc3Cl)cn(C3CCCN(CC)C3)c2cc1F)C([2H])([2H])[2H]` (single isomer, unassigned) [Compound 31], the EC50 in the assay on LP-1 cells stood at 731 nM; in the assay with L-363 cells, 436 nM; in the assay on JJN-3 cells, 606 nM. Besides, the IC50 in assay [1] was found to be 146 nM.
As to `[2H]C([2H])([2H])C(O)(C#Cc1cc2c(-c3c[nH]nc3Cl)cn(C3CCCN(CC)C3)c2cc1F)C([2H])([2H])[2H]` (single isomer, unassigned) [Compound 32], the figures for the half-maximal effective concentration (EC50) in the assay on LP-1 cells, with L-363 cells and with JJN-3 cells were 407 nM, 310 nM and 437 nM, respectively. For the same molecule, in assay [1], the IC50 was determined as 76 nM.
For `[2H]C([2H])([2H])C(O)(C#Cc1cc2c(-c3c[nH]nc3Cl)cn(C3CCN(C4CC4)CC3)c2cc1F)C([2H])([2H])[2H]` [Compound 15], the EC50 in the assay with LP-1 cells (Homo sapiens, LP-1, 72 h) turned out to be 581 nM; in the assay on L-363 cells (Homo sapiens, L-363, 72 h), 265 nM; with JJN-3 cells (Homo sapiens, JJN-3, 72 h), 608 nM. Besides, the IC50 in assay [1] is 71 nM.
In the assay with LP-1 cells (Homo sapiens, LP-1, 72 h), `[2H]c1n[nH]c([2H])c1-c1cn(CC)c2cc(F)c(C#CC(C)(C)O)cc12` [Compound 16] returned an EC50 of 14200 nM. For the same molecule, the IC50 in assay [1] was 8510 nM.
With `COCCCn1cc(-c2c[nH]nc2Cl)c2cc(C#CC(C)(O)C3CC3)c(F)cc21` (stereo not shown) [Compound 17], the EC50 in the assay with LP-1 cells (Homo sapiens, LP-1, 72 h) stood at 1400 nM; in the assay with L-363 cells (Homo sapiens, L-363, 72 h), 3240 nM; in the assay with JJN-3 cells (Homo sapiens, JJN-3, 72 h) it was 1520 nM. In addition, the IC50 in assay [1] stood at 183 nM.
Take `COCCCn1cc(-c2c[nH]nc2Cl)c2cc(C#CC(C)(C)O)c(F)cc21` [Compound 18]: the EC50 is 1510 nM with LP-1 cells (Homo sapiens, LP-1, 72 h); 1180 nM in the assay on L-363 cells (Homo sapiens, L-363, 72 h); 706 nM in the assay with JJN-3 cells (Homo sapiens, JJN-3, 72 h). The IC50 in assay [1] was 33 nM.
As for `CN1CCC(n2cc(-c3c[nH]nc3Cl)c3cc(C#CC(C)(O)C4CC4)c(F)cc32)CC1` (stereo not shown) [Compound 19], the EC50 worked out at 749 nM in the assay with LP-1 cells (Homo sapiens, LP-1, 72 h); 632 nM in the assay on L-363 cells (Homo sapiens, L-363, 72 h); 811 nM in the assay with JJN-3 cells (Homo sapiens, JJN-3, 72 h). Besides, the IC50 in assay [1] amounted to 190 nM.
As for `CN1CCC(n2cc(-c3c[nH]nc3Cl)c3cc(C#CC(C)(C)O)c(F)cc32)CC1` [Compound 20], the EC50 was determined as 111 nM in the assay with LP-1 cells (Homo sapiens, LP-1, 72 h); 43 nM in the assay with L-363 cells (Homo sapiens, L-363, 72 h); 61 nM in the assay with JJN-3 cells (Homo sapiens, JJN-3, 72 h). For the same molecule, the IC50 in assay [1] turned out to be 21 nM.
As for `CC(O)(C#Cc1cc2c(-c3c[nH]nc3Cl)cn(CCCO)c2cc1F)C1CC1` (stereo not shown) [Compound 21], the EC50 in the assay with LP-1 cells (Homo sapiens, LP-1, 72 h) worked out at 3510 nM; with L-363 cells (Homo sapiens, L-363, 72 h) it was 1930 nM; in the assay on JJN-3 cells (Homo sapiens, JJN-3, 72 h), 1090 nM. Also, in assay [1], the IC50 came to 67 nM.
As for `CCn1cc(-c2c[nH]nc2Cl)c2cc(C#CC(C)(C)O)cc(Cl)c21` [Compound 23], the EC50 in the assay on LP-1 cells (Homo sapiens, LP-1, 72 h) amounted to 3610 nM; in the assay with L-363 cells (Homo sapiens, L-363, 72 h) it was 5400 nM; in the assay on JJN-3 cells (Homo sapiens, JJN-3, 72 h) it was 2740 nM. Besides, the IC50 in assay [1] came out at 204 nM.
Regarding `CCn1cc(-c2c[nH]nc2Cl)c2cc(C#CC(C)(C)O)c(F)c(F)c21` [Compound 25], the EC50 in the assay with LP-1 cells (Homo sapiens, LP-1, 72 h) amounted to 3230 nM; in the assay on L-363 cells (Homo sapiens, L-363, 72 h) it was 4350 nM; in the assay with JJN-3 cells (Homo sapiens, JJN-3, 72 h), 2230 nM. In addition, the IC50 in assay [1] is 86 nM.
As to `CCn1cc(-c2cn[nH]c2)c2cc(C#CC(C)(C)O)cc(F)c21` [Compound 26], the EC50 in the assay on LP-1 cells (Homo sapiens, LP-1, 72 h) was 2210 nM; with L-363 cells (Homo sapiens, L-363, 72 h), 1130 nM; in the assay with JJN-3 cells (Homo sapiens, JJN-3, 72 h) it was 1570 nM. Besides, the IC50 in assay [1] was found to be 51 nM.
For `CCn1cc(-c2cn[nH]c2)c2cc(C#CC(C)(C)O)cc(C(F)(F)F)c21` [Compound 27], the IC50 in assay [1] turned out to be 552 nM.
On to `CCn1cc(-c2cn[nH]c2)c2cc(C#CC(C)(C)O)cc(C#N)c21` [Compound 28], for which the IC50 in assay [1] worked out at 554 nM.
As for `CN1CC(n2cc(-c3c[nH]nc3Cl)c3cc(C#CC(C)(C)O)c(F)cc32)C1` [Compound 29], the EC50 in the assay on LP-1 cells (Homo sapiens, LP-1, 72 h) was 758 nM; with L-363 cells (Homo sapiens, L-363, 72 h), 176 nM; in the assay on JJN-3 cells (Homo sapiens, JJN-3, 72 h), 375 nM. In addition, in assay [1], the IC50 worked out at 50 nM.
Consider `CN1CCC(n2cc(-c3c[nH]nc3Cl)c3cc(C#CC4(O)CCCC4)c(F)cc32)CC1` [Compound 36], for which the EC50 with LP-1 cells (Homo sapiens, LP-1, 72 h) came to 1210 nM; in the assay on L-363 cells (Homo sapiens, L-363, 72 h), 845 nM; with JJN-3 cells (Homo sapiens, JJN-3, 72 h), 1220 nM.

By EC50 is commonly meant the concentration at which the effect is half-maximal. One may read the IC50 as the concentration that gives 50% inhibition.
